In paper PMC10944877, “Identification of dihydromyricetin as a natural DNA methylation inhibitor with rejuvenating activity in human skin” (Frontiers in Aging, 2024):

Tests used:
[1] = target: T1, DNMT1 (Homo sapiens, UniProt P26358); experiment: biochemical DNMT activity quantification kit (Abcam), three […] pure preparations, n = […]
[2] = target: T1, DNMT1; experiment: scintillation proximity methylation assay (SPA) screen with purified DNMT1; IC50 in Supplementary Figure S1A; type: biochemical; set-up: full-length recombinant human DNMT1

T1 sequence (P26358 whole entry): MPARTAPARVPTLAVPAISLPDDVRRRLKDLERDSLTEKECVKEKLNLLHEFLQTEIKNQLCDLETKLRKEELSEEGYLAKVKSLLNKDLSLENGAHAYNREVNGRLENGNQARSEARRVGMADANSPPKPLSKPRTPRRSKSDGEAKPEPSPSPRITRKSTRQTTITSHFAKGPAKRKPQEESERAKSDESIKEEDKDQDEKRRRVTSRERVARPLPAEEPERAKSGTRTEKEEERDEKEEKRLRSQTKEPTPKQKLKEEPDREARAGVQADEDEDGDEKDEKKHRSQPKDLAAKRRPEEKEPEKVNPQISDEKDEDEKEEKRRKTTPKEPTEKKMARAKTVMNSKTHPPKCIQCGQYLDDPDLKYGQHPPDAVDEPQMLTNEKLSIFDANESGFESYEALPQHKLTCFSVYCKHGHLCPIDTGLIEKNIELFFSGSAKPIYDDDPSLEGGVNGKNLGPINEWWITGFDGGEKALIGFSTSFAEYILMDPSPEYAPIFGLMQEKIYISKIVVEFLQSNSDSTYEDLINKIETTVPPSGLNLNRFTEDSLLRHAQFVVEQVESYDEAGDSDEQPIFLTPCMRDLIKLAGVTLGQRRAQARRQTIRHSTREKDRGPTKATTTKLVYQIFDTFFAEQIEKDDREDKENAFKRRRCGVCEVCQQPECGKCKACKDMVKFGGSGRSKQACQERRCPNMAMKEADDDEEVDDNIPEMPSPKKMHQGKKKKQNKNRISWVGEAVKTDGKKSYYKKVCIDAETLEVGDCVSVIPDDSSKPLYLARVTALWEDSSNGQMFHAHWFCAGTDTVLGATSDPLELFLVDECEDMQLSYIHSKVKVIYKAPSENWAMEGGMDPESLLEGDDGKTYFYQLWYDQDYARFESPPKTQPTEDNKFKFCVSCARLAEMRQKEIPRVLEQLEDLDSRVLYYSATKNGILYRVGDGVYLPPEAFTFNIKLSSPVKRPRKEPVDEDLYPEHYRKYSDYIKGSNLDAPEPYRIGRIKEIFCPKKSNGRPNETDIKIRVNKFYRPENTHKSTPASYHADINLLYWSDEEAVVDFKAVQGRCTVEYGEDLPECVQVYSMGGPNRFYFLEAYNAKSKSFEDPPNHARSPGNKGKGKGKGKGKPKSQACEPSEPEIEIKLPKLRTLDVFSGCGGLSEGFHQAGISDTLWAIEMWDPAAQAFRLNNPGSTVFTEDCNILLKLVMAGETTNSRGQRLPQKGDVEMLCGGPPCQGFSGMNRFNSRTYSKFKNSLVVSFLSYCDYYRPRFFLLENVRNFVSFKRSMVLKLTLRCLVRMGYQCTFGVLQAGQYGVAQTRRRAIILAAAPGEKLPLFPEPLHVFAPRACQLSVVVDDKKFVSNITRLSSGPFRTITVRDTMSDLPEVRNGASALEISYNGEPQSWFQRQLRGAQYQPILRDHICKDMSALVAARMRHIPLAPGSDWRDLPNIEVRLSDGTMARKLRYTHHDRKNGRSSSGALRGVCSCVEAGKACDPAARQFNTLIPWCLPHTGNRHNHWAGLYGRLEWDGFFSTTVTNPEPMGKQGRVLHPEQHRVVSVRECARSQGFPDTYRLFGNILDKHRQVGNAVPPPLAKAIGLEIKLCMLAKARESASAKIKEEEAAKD

SMILES | biochemical DNMT activity quantification kit (Abcam), three >95% pure preparatio [1] | IC50 [2]
O=C1c2c(O)cc(O)cc2O[C@H](c2cc(O)c(O)c(O)c2)[C@H]1O [DHM, 3,3′,4′,5,5’,7-hexahydroxy-2,3-dihydroflavanonol] | DNMT1 inhibitory activity for DHM in the similar concentration range like myricetin (Figure 1D; Supplementary Figure S1B) | 
O=c1c(O)c(-c2cc(O)c(O)c(O)c2)oc2cc(O)cc(O)c12 [Myr, myricetin] |  | 43.4 µM
